Ten compounds from US12152029B2, “Crystalline forms of a MAGL inhibitor” (H. Lundbeck A/S, priority 2021, dated 2024) can be followed below.

Molecules are shown by their SMILES.

Type in all cases: physicochemical
Data set [1] in a line: Solid form conversion of solvates on heating, drying or storage (XRPD).
The nature of data set [2]: Dynamic vapour sorption (DVS). The following applies: for water uptake up to 90% RH / hygroscopicity by DVS analysis: 25° C.; for water uptake up to 90% RH: 0% RH to 90% RH; for hygroscopicity by DVS analysis: up to 90% RH; for Hygroscopicity in DVS, uptake at 90% RH: Table 3, 90% RH. Here is the method:
Dynamic vapour sorption (DVS) was measured using a SMS DVS Intrinsic moisture sorption analyser changing the relative humidity from 0% RH to 90% RH. The sample temperature was maintained at 25° C. The humidity was controlled by mixing streams of dry and wet nitrogen, with a total flow rate of 200 ml/min. The relative humidity was measured by a calibrated Rotronic probe (dynamic range of 1.0-100% RH), located near the sample. The weight change of the sample as a function of % RH was constantly monitored by a balance.
Typically, 5-30 mg of sample was placed in a tared mesh stainless steel basket under ambient conditions. The sample was loaded and unloaded at 40% RH and 25° C. (typical room conditions).

The nature of data set [3]: Stability of HCl salt forms at accelerated (elevated) conditions. The conditions noted are these: for Stability at elevated conditions: Table 3. How it is done: To further elucidate differences between the hydrochloride salt forms, their stability at accelerated conditions and their hygroscopicity was measured. The data are summarized in Table 3 together with the observations reported in Example 20.

A short description of data set [4]: Competitive slurry experiments between different forms of Compound (I) HCl salt. Here is the method:
Competitive slurry experiments between different form of Compound (I) HCl salt were performed to elucidate the relative thermodynamic stability between unsolvated crystalline forms of interest.
The resulting slurries were stirred for 3 hours to approach equilibrium conditions at either 5 or 50° C., 500 rpm. The following solvents and solvent combinations were utilized: EtOAc, MIBK, THF, MeCN, MeOH, and Acetone.
This dry powder mixture was mixed in a gyroscopic Turbula mixer for 2 hours. Then 50 mg aliquots of the mixture were weighed into HPLC vials and 0.5 mL of the above saturated solutions were added. The resulting suspensions were then stirred for 7 days.
The above competitive slurries were sampled after 1 and 7 days. The samples taken after 1 day were air dried and analyzed with XRPD. The samples taken after 7 days were first analyzed in wet state (covered with a Kapton film) in the XRPD and then subjected to air drying and analyzed again.

Data set [5] can be described thus: Competitive slurry experiments between Compound (I) form 1 and form 7. The following applies: slurry in methanol or ethanol at 5° C., room temperature and 50° C. for one week. How it is done:
The relative thermodynamic stability of Compound (I) form 1 and Compound (I) form 7 was elucidated using competitive slurry experiments as detailed in the following.
Step 1: Compound (I) form 1 (150 mg) and Compound (I) form 7 (150 mg) were mixed in a 20 mL vial. 40 mg (each) of this physical mixture was placed into six 2 mL vials.
Step 2: Using the remaining 60 mg of the physical mixture, saturated solutions with methanol and ethanol, respectively, were produced. The saturated solutions were filtered off.
Step 3: 10 volumes ([…]) of each saturated solution were added to each of the six 2 mL vials mentioned in step 1.
Step 4: One vial for each solvent was kept at 5° C., room temperature and 50° C. for one week.
XRPD analysis carried out on the solids yielded a pattern substantially similar to FIG. 1 for all six vials.

Setting [6] is: DVS, listed as Compound (I) HCl form 2.
[7] abbreviates: DVS, listed as Compound (I) HCl form 4.
Setting [8] is: DVS, listed as Compound (I) HCl form 5.
Where [9] appears, read: DVS, listed as Compound (I) HCl form 6.

As to `C1COCCO1.O=C(O)c1ccn(C(=O)N2CCC3(CCCN3Cc3ccc(C(F)(F)F)cc3N3CCCC3)CC2)n1` [Compound (I) 1,4-dioxane solvate form 1, 1-(1-(2-(pyrrolidin-1-yl)-4-(trifluoromethyl)benzyl)-1,8-diazaspiro[4.5]decane-8-carbonyl)-1H-pyrazole-3-carboxylic acid 1,4-dioxane solvate form 1], the “solid form change upon drying” value in data set [1] (two hours in a vacuum oven at room temperature) is reported as “transforms into Compound (I) form 1 upon drying”.
In the case of `CC1CCCO1.Cl.O=C(O)c1ccn(C(=O)N2CCC3(CCCN3Cc3ccc(C(F)(F)F)cc3N3CCCC3)CC2)n1` [Compound (I) HCl salt 2-MeTHF solvate], the “solid form change upon storage” value in data set [1] (40° C./75% RH for 7 days) is recorded as “transformed into Compound (I) HCl Form 2”. Also, in data set [1] (100° C. for 10 minutes), the “solid form change upon drying” value is “transformed into Compound (I) HCl salt form 4”.
As for `Cl.O=C(O)c1ccn(C(=O)N2CCC3(CCCN3Cc3ccc(C(F)(F)F)cc3N3CCCC3)CC2)n1` [Compound (I) HCl salt MIBK solvate], the “solid form change upon drying” value in data set [1] (drying the solid (conditions not given)) is “transforms into Compound (I) HCl salt form 2 upon drying”.
Consider `Cl.O=C(O)c1ccn(C(=O)N2CCC3(CCCN3Cc3ccc(C(F)(F)F)cc3N3CCCC3)CC2)n1` [Compound (I) HCl salt form 2, 1-(1-(2-(pyrrolidin-1-yl)-4-(trifluoromethyl)benzyl)-1,8-diazaspiro[4.5]decane-8-carbonyl)-1H-pyrazole-3-carboxylic acid HCl salt form 2], for which, in data set [2] (DVS), the “water uptake compared with the other HCl salt forms” value is given as “lowest water uptake”. In data set [2] (setting [6]), the “water uptake up to 90% RH” value was 0.5 % wt and the “hygroscopicity by DVS analysis” value is “slightly hygroscopic”. For the same compound, the “Hygroscopicity in DVS, uptake at 90% RH” value in data set [2] (listed as Form 2) is “(0.5 wt %”. Moreover, the “Stability at elevated conditions” value in data set [3] (listed as Form 2) is on record as “No change”. The “stability compared with the other HCl salt forms” value in data set [3] (accelerated conditions) was “superior stability over Compound (I) HCl salt form 5 and form 6”.
Turning to `Cl.O=C(O)c1ccn(C(=O)N2CCC3(CCCN3Cc3ccc(C(F)(F)F)cc3N3CCCC3)CC2)n1` [Compound (I) HCl salt form 4, 1-(1-(2-(pyrrolidin-1-yl)-4-(trifluoromethyl)benzyl)-1,8-diazaspiro[4.5]decane-8-carbonyl)-1H-pyrazole-3-carboxylic acid HCl salt form 4], in data set [2] (setting [7]), the “water uptake up to 90% RH” value came to 1.4 % wt and the “hygroscopicity by DVS analysis” value is recorded as “slightly hygroscopic”. Also, in data set [2] (listed as Form 4), the “Hygroscopicity in DVS, uptake at 90% RH” value is “(1.4 wt %”. Moreover, in data set [3] (listed as Form 4), the “Stability at elevated conditions” value was “No change”.
Take `Cl.O=C(O)c1ccn(C(=O)N2CCC3(CCCN3Cc3ccc(C(F)(F)F)cc3N3CCCC3)CC2)n1` [Compound (I) HCl salt form 5]: in data set [2] (setting [8]), the “water uptake up to 90% RH” value worked out at 9.2 % wt and the “hygroscopicity by DVS analysis” value is given as “moderately hygroscopic”. The “Hygroscopicity in DVS, uptake at 90% RH” value in data set [2] (listed as Form 5) is listed as “(9.2 wt %”.
Take `Cl.O=C(O)c1ccn(C(=O)N2CCC3(CCCN3Cc3ccc(C(F)(F)F)cc3N3CCCC3)CC2)n1` [Compound (I) HCl salt form 6]: in data set [2] (setting [9]), the “water uptake up to 90% RH” value was found to be 3.1 % wt and the “hygroscopicity by DVS analysis” value is reported as “moderately hygroscopic”. The “Hygroscopicity in DVS, uptake at 90% RH” value in data set [2] (listed as Form 6) is “(3.1 wt %”.
Regarding `Cl.O=C(O)c1ccn(C(=O)N2CCC3(CCCN3Cc3ccc(C(F)(F)F)cc3N3CCCC3)CC2)n1` [Compound (I) HCl salt], the “XRPD ‘dry’ after 1 day” value in data set [4] (5 ° C., Acetone) is “HCl salt Form 4”; in data set [4] (5 ° C., EtOAc) it was “HCl salt Form 2”; in data set [4] (5 ° C., MeCN) it was “HCl salt Form 5”; in data set [4] (5 ° C., THF), “HCl salt Form 4”; in data set [4] (50 ° C., Acetone), “HCl salt Form 2”; in data set [4] (50 ° C., EtOAc), “HCl salt Form 2”. The “XRPD ‘dry’ after 1 day” value in data set [4] (50 ° C., MeCN) is given as “HCl salt Form 5”; in data set [4] (50 ° C., THF), “HCl salt Form 4”. The “XRPD ‘dry’ after 7 days” value is “HCl salt Form 4” in data set [4] (5 ° C., Acetone); “HCl salt Form 2” in data set [4] (5 ° C., EtOAc); “HCl salt Form 5” in data set [4] (5 ° C., MeCN); “HCl salt Form 4” in data set [4] (5 ° C., THF); “HCl salt Form 2” in data set [4] (50 ° C., Acetone); “HCl salt Form 2” in data set [4] (50 ° C., EtOAc). For the same compound, the “XRPD ‘dry’ after 7 days” value is recorded as “HCl salt Form 5” in data set [4] (50 ° C., MeCN) and “HCl salt Form 4” in data set [4] (50 ° C., THF). Moreover, the “XRPD ‘wet’ (Kapton film) after 7 days” value is “metastable solvate” in data set [4] (5 ° C., Acetone); “metastable solvate” in data set [4] (5 ° C., EtOAc); “metastable solvate” in data set [4] (5 ° C., MIBK); “metastable solvate” in data set [4] (5 ° C., MeCN); “metastable solvate” in data set [4] (5 ° C., MeOH); “metastable solvate” in data set [4] (5 ° C., THF). For the same compound, the “XRPD ‘wet’ (Kapton film) after 7 days” value was “metastable solvate” in data set [4] (50 ° C., Acetone); “metastable solvate” in data set [4] (50 ° C., EtOAc); “metastable solvate” in data set [4] (50 ° C., MIBK); “metastable solvate” in data set [4] (50 ° C., MeCN); “metastable solvate” in data set [4] (50 ° C., MeOH); “metastable solvate” in data set [4] (50 ° C., THF).
For the compound `CC(C)=O.O=C(O)c1ccn(C(=O)N2CCC3(CCCN3Cc3ccc(C(F)(F)F)cc3N3CCCC3)CC2)n1` [Compound (I) acetone solvate, 1-(1-(2-(pyrrolidin-1-yl)-4-(trifluoromethyl)benzyl)-1,8-diazaspiro[4.5]decane-8-carbonyl)-1H-pyrazole-3-carboxylic acid acetone solvate], the “solid form change upon heating” value in data set [1] (heating for 2 min at 175° C.) is “transforms into Compound (I) form 1 at elevated temperature”.
Consider `O=C(O)c1ccn(C(=O)N2CCC3(CCCN3Cc3ccc(C(F)(F)F)cc3N3CCCC3)CC2)n1` [Compound (I) form 1, 1-(1-(2-(pyrrolidin-1-yl)-4-(trifluoromethyl)benzyl)-1,8-diazaspiro[4.5]decane-8-carbonyl)-1H-pyrazole-3-carboxylic acid], for which the relative thermodynamic stability result is on record as “more thermodynamically stable than Compound (I) form 7 at all temperatures tested” in data set [5] and “thermodynamically stable” in data set [5] (listed as 1-(1-(2-(pyrrolidin-1-yl)-4-(trifluoromethyl)benzyl)-1,8-diazaspiro[4.5]decane-8)). For the same compound, the “water uptake up to 90% RH” value in data set [2] (DVS) is reported as less than 1%. Besides, the “hygroscopicity by DVS analysis” value in data set [2] (DVS) is recorded as “largely non-hygroscopic”. In data set [2] (after DVS cycle), the “solid form by XRPD analysis after DVS analysis” value is given as “still Compound (I) form 1”.
